Legend:
MarR_73 S28A = MarR_73 S28A (Variovorax paradoxus, UniProt C5CSP2, S28A); assay: biochemical
Description: (§1) The coding sequence for each gene can be found in Supplementary Table 10. MarR expression plasmids were synthesized as codon-optimized genes for E. coli expression by BioBasic in the pLIC-His N-term vector (pMCSG7) and transformed into E. coli BL21 (DE3) Gold cells for expression. […] At an OD600 of 0.8, protein expression was induced by the addition of 0.1 mM IPTG and incubation continued overnight. Cells were collected by centrifugation at 4,500 × g for 20 min at 4 °C in a Sorvall (model RC-3B) swinging bucket centrifuge. Cell pellets were resuspended in buffer A (20 mM potassium phosphate, pH 7.4, 50 mM imidazole, 500 mM NaCl), DNase, lysozyme and a Roche Complete EDTA-free protease inhibitor tablet. Resuspended cells were sonicated and clarified via centrifugation at 17,000 × g for 60 min in a Sorvall (model RC-5B) swinging bucket centrifuge. The lysate was applied to a nickel-nitrilotriacetic acid HP column (GE Healthcare) on an Aktaxpress Fast Performance Liquid Chromatography (FPLC) system (Amersham Bioscience) and washed with buffer A. Protein was eluted with buffer B (20 mM potassium phosphate, pH 7.4, 500 mM imidazole, 500 mM NaCl). Fractions containing the protein of interest were combined and passed over a HiLoadTM 16/60 SuperdexTM 200 gel filtration column. Proteins were eluted in S200 buffer (20 mM HEPES, pH 7.4, 300 mM NaCl). Fractions were combined and concentrated for long-term storage at −80 °C.
(§2) MarR mutant proteins were created by site-directed mutagenesis using primers from Integrated DNA Technologies. […] The mutants were produced and purified using E. coli BL21 (DE3) Gold as described above.
(§3) All ITC measurements were performed at 25 °C using an Auto-ITC200 microcalorimeter (MicroCal/GE Healthcare). The buffer employed was 20 mM HEPES, pH 7.4, 50 mM NaCl and 0.5% dimethly sulfoxide (DMSO) for protein/ligand binding and 20 mM HEPES, pH 7.4 and 300 mM NaCl for DNA/protein binding experiments. For ligand binding experiments, the calorimetry cell (volume […]) was loaded with MarR wild-type, mutant or homologue protein at a concentration of 50 μM. The syringe was loaded with a ligand concentration of 0.5 or 2 mM. […] A typical injection protocol included a single 0.2 μl first injection followed by 20 1.5 μl injections of the syringe sample into the calorimetry cell. The spacing between injections was kept at 180 s and the reference power at 8 μcal s^−1. […] Two independent ITC measurements were performed for each condition.

MarR_73 H32A = MarR_73 H32A (Variovorax paradoxus, UniProt C5CSP2, H32A); assay: biochemical
Sequence of MarR_73 H32A (C5CSP2 1-158, stated change not applied): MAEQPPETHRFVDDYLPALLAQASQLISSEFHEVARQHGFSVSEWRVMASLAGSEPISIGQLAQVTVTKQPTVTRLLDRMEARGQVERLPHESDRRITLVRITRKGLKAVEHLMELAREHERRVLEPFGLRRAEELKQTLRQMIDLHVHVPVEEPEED
Description: as §1, §2, §3

MarR_73 R46A = MarR_73 R46A (Variovorax paradoxus, UniProt C5CSP2, R46A); assay: biochemical
Sequence of MarR_73 R46A (C5CSP2 1-158, stated change not applied): as above
Description: as §1, §2, §3

IAA degradation locus = assay: RNA-seq of V. paradoxus CL14 strains with and without IAA; type: cell-based, Variovorax paradoxus CL14; conditions: Fig 2 f; for CL14wt_IAA (RNA-seq expression value): CL14 wild type with IAA; for d50_IAA (RNA-seq expression value): ΔMarR_50 with IAA; for d73_IAA (RNA-seq expression value): ΔMarR_73 with IAA; for diadDE_IAA (RNA-seq expression value): ΔiadDE with IAA
Description: V. paradoxus CL14 was grown in 5 ml cultures of M9 minimal medium supplemented with 15 mM succinate and 0.5% (v/v) ethanol alone or containing IAA. IAA was at a final concentration of 0.1 mg ml^−1 in the medium to which it was added. Cultures were prepared at a starting OD600 of 0.02 and incubated at 28 °C, shaking at 250 r.p.m. Cells from all samples were collected for RNA-seq at 18 h to ensure IAA was still present in the cultures of strains that degraded IAA most rapidly. Cells were pelleted by centrifuging the culture at 4,200 × g for 15 min and removing the supernatant. Cell pellets were frozen at −80 °C before RNA extraction. To extract RNA, cells were lysed in TRIzol reagent (Invitrogen) according to manufacturer instructions for lysis and phase separation. After these steps, RNA was purified from the aqueous phase using the RNeasy mini kit (Qiagen) including the optional on-column DNase digestion with RNase-free DNase set (Qiagen). Total RNA was quantified using the Qubit 2.0 fluorometer (Invitrogen) and RNA-seq libraries were prepared using the Universal Prokaryotic RNA-Seq Prokaryotic AnyDeplete kit (Tecan) according to manufacturer instructions. The resulting libraries were pooled and sequenced on the Illumina HiSeq4000 to generate 50 bp single-end reads.
The V. paradoxus CL14 RNA-seq sequence data were analysed as described previously. Briefly, the raw reads were mapped to the V. paradoxus CL14 genome (fasta file available at https://github.com/isaisg/variovoraxRGI/blob/master/rawdata/2643221508.fna) using bowtie2[53] with the ‘very sensitive’ flag. Hits to each individual coding sequence were counted and annotated using the function featureCounts from the R package Rsubread[54], inputting the V. paradoxus CL14 gff file (available at https://github.com/isaisg/variovoraxRGI/blob/master/rawdata/2643221508.gff) and using the default parameters with the flag allowMultiOverlap = FALSE. Finally, DESeq2[55] was used to estimate Differentially Expressed Genes (DEGs) between treatments, with the corresponding fold-change estimates and False Discovery Rate (FDR) adjusted P values. For visualization purposes, we performed z-score standardization of each gene across samples and we visualized this standardized expression values utilizing a heat map constructed using ggplot2[56].

[1] = target: Variovorax paradoxus CL14 MarR_50; assay: ITC IAA binding to MarR_50 (IadR2); conditions: 25 °C, IadR2 (MarR_50-like)
Description: as §1, with “Fractions were combined and concentrated for long-term storage at −80 °C.” left out

MarR_73 S28A R46A = MarR_73 S28A R46A (Variovorax paradoxus, UniProt C5CSP2, R46A/S28A); conditions: ITC, 25 °C; mutant S28A R46A
Sequence of MarR_73 S28A R46A (C5CSP2 1-158, stated change not applied): as above
Description: as §1, with “Fractions were combined and concentrated for long-term storage at −80 °C.” left out

Sequence of MarR_73 S28A (C5CSP2 1-158, stated change not applied): as above

`O=C(O)Cc1c[nH]c2ccccc12` [IAA, indole-3-acetic acid] was tested, and the Kd (MarR_73 S28A) was 2.4 ± 0.1 µM, the N (MarR_73 S28A; ITC, 25 °C, mutant S28A) was 0.52 ± 0.01 and the Kd (MarR_73 H32A) was 3.1 ± 0.1 µM. The N (MarR_73 H32A; ITC, 25 °C, mutant H32A) was 0.28 ± 0.01, the Kd (MarR_73 R46A) was 11 ± 1 µM and the N (MarR_73 R46A; ITC, 25 °C, mutant R46A) was 1.1 ± 0.1. For the same compound, the “CL14wt_IAA (RNA-seq expression value)” value (IAA degradation locus; Gene 2643611541) was -0.7473, the “d50_IAA (RNA-seq expression value)” value (IAA degradation locus; Gene 2643611541) was 0.6042 and the “d73_IAA (RNA-seq expression value)” value (IAA degradation locus; Gene 2643611541) was 0.2688. The “diadDE_IAA (RNA-seq expression value)” value (IAA degradation locus; Gene 2643611541) was 0.4986, the “CL14wt_IAA (RNA-seq expression value)” value (IAA degradation locus; Gene 2643611542) was -0.07617 and the “d50_IAA (RNA-seq expression value)” value (IAA degradation locus; Gene 2643611542) was 0.09619. The “d73_IAA (RNA-seq expression value)” value (IAA degradation locus; Gene 2643611542) was 0.02449, the “diadDE_IAA (RNA-seq expression value)” value (IAA degradation locus; Gene 2643611542) was 0.1314 and the “CL14wt_IAA (RNA-seq expression value)” value (IAA degradation locus; Gene 2643611543) was -0.001618. The “d50_IAA (RNA-seq expression value)” value (IAA degradation locus; Gene 2643611543) was 0.2002, the “d73_IAA (RNA-seq expression value)” value (IAA degradation locus; Gene 2643611543) was 0.2405 and the “diadDE_IAA (RNA-seq expression value)” value (IAA degradation locus; Gene 2643611543) was 0.0895. For the same compound, the “CL14wt_IAA (RNA-seq expression value)” value (IAA degradation locus; Gene 2643611544) was -1.408, the “d50_IAA (RNA-seq expression value)” value (IAA degradation locus; Gene 2643611544) was -0.115 and the “d73_IAA (RNA-seq expression value)” value (IAA degradation locus; Gene 2643611544) was 0.2327. The “diadDE_IAA (RNA-seq expression value)” value (IAA degradation locus; Gene 2643611544) was 0.2436, the “CL14wt_IAA (RNA-seq expression value)” value (IAA degradation locus; Gene 2643611545) was -0.03496 and the “d50_IAA (RNA-seq expression value)” value (IAA degradation locus; Gene 2643611545) was 0.09136. For the same compound, the “d73_IAA (RNA-seq expression value)” value (IAA degradation locus; Gene 2643611545) was -0.02991, the “diadDE_IAA (RNA-seq expression value)” value (IAA degradation locus; Gene 2643611545) was 0.001153 and the KD1 [1] was “No Binding”. It also gave an N (MarR_73 S28A R46A) of 1.2 ± 0.2.
